Results reported in PubChem BioAssay (NCI).
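Each compound was tested at five concentrations against cells in 96-well plates for 48 hours. Abbreviation: GI50, concentration required for 50% inhibition of growth. TGI: concentration producing complete growth inhibition.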

Legend:
Experiment in all cases: NCI tumour cell line growth inhibition, 48 h
HL-60(TB) leukemia = tested on: HL-60(TB) leukemia
HCC-2998 colon = tested on: HCC-2998 colon
SNB-75 CNS = tested on: SNB-75 CNS
786-0 renal = tested on: 786-0 renal
SK-MEL-2 melanoma = tested on: SK-MEL-2 melanoma
OVCAR-4 ovarian = tested on: OVCAR-4 ovarian
COLO 205 colon = tested on: COLO 205 colon
IGROV1 ovarian = tested on: IGROV1 ovarian
MDA-MB-435 = tested on: MDA-MB-435
T-47D breast = tested on: T-47D breast

SMILES | TGI (HL-60(TB) leukemia) | TGI (HCC-2998 colon) | TGI (SNB-75 CNS) | TGI (786-0 renal) | TGI (SK-MEL-2 melanoma) | TGI (OVCAR-4 ovarian) | TGI (COLO 205 colon) | TGI (IGROV1 ovarian) | GI50 (HL-60(TB) leukemia) | GI50 (SNB-75 CNS) | GI50 (786-0 renal) | GI50 (SK-MEL-2 melanoma) | GI50 (COLO 205 colon) | GI50 (IGROV1 ovarian) | GI50 (MDA-MB-435) | TGI (MDA-MB-435) | TGI (T-47D breast) | GI50 (HCC-2998 colon) | GI50 (T-47D breast) | GI50 (OVCAR-4 ovarian)
CCOC(=O)c1ccc(N=Cc2ccc(N(CCC#N)S(=O)(=O)c3ccccc3)cc2C)cc1 | > 100 µM | 58.1 µM | > 100 µM | > 100 µM | > 100 µM | > 100 µM | 52.9 µM | > 100 µM |  |  |  |  |  |  |  |  |  |  |  | 
COc1ccc2nc3cc(Cl)ccc3c(Sc3ccc(N)cc3)c2c1 |  | 25.1 µM | 23.2 µM | 19.8 µM | 27.7 µM | 29.9 µM | 23.3 µM | 32 µM |  |  |  |  |  |  |  |  |  |  |  | 
CN(c1cccc(C(=O)O)c1)c1cc(O/N=[N+](\[O-])N(C)C)c([N+](=O)[O-])cc1[N+](=O)[O-] | > 100 µM |  | > 100 µM | > 100 µM | > 100 µM |  | > 100 µM | > 100 µM | 72.2 µM | > 100 µM | > 100 µM | > 100 µM | > 100 µM | > 100 µM | > 100 µM | > 100 µM |  |  |  | 
O=C(n1c2ccccc2c2n[nH]c(=S)nc21)C(F)(F)F |  | > 100 µM | > 100 µM | > 100 µM |  | > 100 µM | > 100 µM | > 100 µM |  |  |  |  |  |  |  |  |  |  |  | 
CCCCC[C@@H]1CCCC2NC(CCCCCO[Si](c3ccccc3)(c3ccccc3)C(C)(C)C)CCC21 (stereo not given in full) | 23 µM | 25.1 µM | 30 µM | 33.2 µM | 31 µM | 21 µM |  | 32.9 µM |  |  |  |  |  |  |  |  |  |  |  | 
O=C1c2ccccc2C(=O)N1c1ccc(Cc2ccc(N3C(=O)c4ccccc4C3=O)cc2)cc1 |  | > 100 µM | > 100 µM | > 100 µM | > 100 µM | > 100 µM | > 100 µM | > 100 µM |  |  |  |  |  |  |  | > 100 µM | > 100 µM |  |  | 
CC(NCCN(C)C)C1CCC2C3CCc4cc(O)ccc4C3CCC12C (stereo not given) | 4.15 µM |  | 10.2 µM | 4.1 µM | 3.79 µM | 9.55 µM | 3.54 µM | 17.2 µM |  |  |  |  |  |  |  | 4.7 µM | 5.29 µM |  |  | 
Cn1c(=O)nc2n(-c3ccc(Br)cc3)c3ccccc3nc-2c1=O |  | 10.8 µM | 19.4 µM | 22.3 µM | 28.5 µM | 14.6 µM | 11.1 µM | 28 µM |  |  |  |  |  |  |  |  |  |  |  | 
CC(C)(C)c1cc(C2c3cc4c(cc3OC(O)(CO)C2C(=O)O)OCO4)cc(C(C)(C)C)c1O (stereo not given) (tested in a mixture with another compound) | 38.2 µM |  | 22.8 µM | 33.8 µM |  | 25.6 µM | 37.8 µM | 48.6 µM |  |  |  |  |  |  |  |  |  |  |  | 
N#CN1CC[C@@H]2CC3(CCC2C1)OCCO3 (stereo not given in full) | > 100 µM | > 100 µM | > 100 µM | > 100 µM | > 100 µM | > 100 µM | > 100 µM | > 100 µM |  |  |  |  |  |  |  |  |  |  |  | 
COC(=O)NC1(NC(=O)OC)NC(=O)c2ccccc2N1 | > 100 µM | > 100 µM | > 100 µM | > 100 µM | > 100 µM | > 100 µM | > 100 µM | > 100 µM |  |  |  |  |  |  |  |  | > 100 µM |  |  | 
Nc1n[n+]([O-])c2ccc(Cl)cc2[n+]1[O-] | > 100 µM | 55.5 µM | > 100 µM | > 100 µM | > 100 µM |  | 30.9 µM | 25.3 µM |  |  |  |  |  |  |  | 74.2 µM | 99.4 µM |  |  | 
O=C(c1ccccc1)c1nc2c(Cl)ccc(Cl)c2cc1C(Br)Br |  | 4.92 µM | 2.07 µM | 0.983 µM | 4.34 µM | 3.48 µM | 14.5 µM | 12.4 µM |  |  |  |  |  |  |  |  |  |  |  | 
CC(C)(C)C1=CC(=N/N=c2\scc(-c3ccccc3)n2Cc2ccccc2)C=C(C(C)(C)C)C1=O | > 100 µM | > 100 µM | > 100 µM | > 100 µM | > 100 µM | > 100 µM | > 100 µM |  |  |  |  |  |  |  |  |  |  |  |  | 
N[C@H]1CCC[C@@H](O)C1O (stereo not given in full) | > 100 µM | > 100 µM | > 100 µM | > 100 µM | > 100 µM |  | > 100 µM | > 100 µM |  |  |  |  |  |  |  | > 100 µM | > 100 µM |  |  | 
O=C(NCCCN1CCN(CCCNC(=O)c2cccc3ccccc23)CC1)c1cccc2ccccc12 | > 100 µM | > 100 µM | 41.7 µM | > 100 µM | > 100 µM | > 100 µM | > 100 µM | > 100 µM |  |  |  |  |  |  |  |  |  |  |  | 
COC(=O)CNC(=O)C(=O)c1c(O)c(O)c(C(C)C)c2cc(C)c(-c3c(C)cc4c(C(C)C)c(O)c(O)c(C(=O)C(=O)NCC(=O)OC)c4c3O)c(O)c12 |  | 7.1 µM | 8.5 µM | 8.77 µM | 2.13 µM | 4.58 µM | 3.16 µM | 8.94 µM |  | 1.61 µM | 2.35 µM | 0.832 µM | 1.28 µM | 1.92 µM | 2.46 µM | 9.3 µM | 40.9 µM | 1.92 µM | 5.09 µM | 1.29 µM
CNC(=O)[C@H](Cc1c[nH]c2ccccc12)NC(=O)[C@@H](CC(=O)NO)CC(C)C |  | > 25 µM | > 25 µM | > 25 µM | > 25 µM | > 25 µM | > 25 µM | > 25 µM |  | > 25 µM | > 25 µM | > 25 µM | > 25 µM | > 25 µM | > 25 µM | > 25 µM | > 25 µM | > 25 µM | > 25 µM | > 25 µM
O=c1[nH]c2nc3ccccc3c(=O)n2nc1Cc1ccccc1 |  | > 100 µM | > 100 µM | > 100 µM | > 100 µM | > 100 µM | > 100 µM | > 100 µM |  |  |  |  |  |  |  |  |  |  |  | 
COc1ccc(-c2cn(C)c3c2-n2cccc2C3=O)cc1O | > 100 µM | 6.46 µM |  | 30.7 µM | 55.3 µM | > 100 µM | 38.8 µM | 75.2 µM | 3.48 µM |  | 9.86 µM | 19.7 µM | 17.1 µM | 26.9 µM | 0.893 µM | 3.91 µM | 28.9 µM | 2.48 µM | 4.78 µM | 25.6 µM
C=C1C(=O)OC2CC1C(OC(=O)/C=C/c1ccccc1)C/C(C)=C/CC/C(C)=C/CCC2(C)O (stereo not given) |  | 3.12 µM | 2.87 µM | 2.31 µM | 2.85 µM | 2.96 µM | > 19.9 µM | 3.07 µM |  |  |  |  |  |  |  | 3.76 µM | 18.4 µM |  |  | 
